These results are taken from US11952364B2, “TRK inhibitors useful as anticancer drugs” (TYLIGAND BIOSCIENCE (SHANGHAI) LIMITED, priority 2018, dated 2024).

This experiment concerns Ba/F3 LMNA-NTRK1-G667C cells. Put plainly: Proliferation of Ba/F3 LMNA-NTRK1-G667C cells (CellTiter-Glo). The format is cell-based, mouse. Particulars: Mus musculus. An excerpt: Ba/F3 LMNA-NTRK1-G667C is a stable transgenic cell line constructed by KYinno Biotechnology Co., Ltd. on mouse primary B cell Ba/F3 wherein NTRK1 has a mutation of G to Cat position 667 and is highly expressed and fused with LMNA to form LMNA-NTRK1-G667C. • [Test method]: Promega's CellTiter-Glo® Luminescent Cell Viability Assay kit was used to evaluate the inhibitory activity of the compounds on the proliferation of Ba/F3 LMNA-NTRK1-G667C cells. • [Instrument]: Spectramax M3 multifunctional microplate reader from Molecular Devices. • [Test materials]: Ba/F3 LMNA-NTRK1-G667C cell line (constructed by KYinno Co., Ltd. (Beijing)), 96-well transparent flat-bottomed black-walled cell culture plate (Corning, cat #3603), RPMI-1640 media (GE, cat #SH30027.01), fetal bovine serum FBS (Thermo Fisher, cat #10099-141), CellTiter-Glo® Luminescent Cell Viability Assay kit (Promega, cat #G7572), PBS (Solarbio, cat #P1020), DMSO (Sigma, cat #D2650). • [Experimental procedure]: When resuscitating Ba/F3 LMNA-NTRK1-G667C cells, the freezing tube was quickly shaken in a 37° C. water bath to melt within 1 minute. The thawed cell suspension was mixed uniformly with RPMI1640 medium containing 10% FBS, centrifuged at 1000 rpm for 5 minutes, and the supernatant discarded. 5 mL of complete medium (RPMI1640 medium with 10% FBS) was taken to resuspend the cell pellets, charged into a cell culture flask with a bottom area of 25 cm^2, and incubated in a cell incubator at 37° C., 95% humidity and 5% CO2. Cells were allowed to passage when the number of cells reached about 10^6 cells/mL. For cell passage, the old cell suspension was directly pipetted evenly, 1/5 of the cell suspension was kept, 4 mL of new complete medium was added, after pipetting evenly, the cell flask was placed in the cell incubator for further culturing. Cell plating was performed when the number of cells reached about 10^6 cells/mL again. For cell plating, 1/5 of the cell suspension was kept for further culturing as in the cell passage method, and the remaining 4/5 of the cell suspension was placed in a 15 mL centrifuge tube, detected for cell viability by Trypan blue exclusion method to ensure that cell viability was above 90%. A cell suspension with a density of 5.56×10^4 viable cells/mL was prepared with complete medium, and 90 μL of such cell suspension was added to a 96-well cell culture plate to obtain the cell density of 5000 viable cells/mL in the cell culture plate. A control group containing no cells, no compound and only complete medium (i.e. culture medium control) and a control group containing no compound but containing cells (i.e. cell control) were set. The cell plate was placed in a cell incubator overnight. The 10 mM compound stock solution in DMSO was first serially diluted with DMSO at a dilution factor of 3.16 times, to obtain 9 concentrations, and the 10th concentration was set as DMSO control without compound. Then, PBS was used to dilute the DMSO solutions of compounds of different concentrations, at a dilution factor of 100 times, so that the DMSO concentration in the compound solution of each concentration was 1%. Finally, 10 μL of each of the above solutions was added to the corresponding cell culture plate, so that the initial compound concentration was 10 μM, with the remaining concentrations being successively diluted at a dilution factor of 3.16 times, and the DMSO content in the cell culture plate was 0.1%. The cell plate was placed in a cell incubator and cultured for 72 hours. For endpoint detection, the CellTiter-Glo reagent was melted, and the cell plate was moved to room temperature to equilibrate for 30 minutes, added with 100 μL of CellTiter-Glo for each well, and shaken on an orbital shaker for 5 minutes to fully lyse the cells. The plate was kept at room temperature for 20 minutes to stabilize the luminescence signal, and the luminescence value of each well was scanned with a multi-functional microplate reader at full wavelength. • [Test samples] […]
In general terms: In ATP-based viability assays light output follows the ATP content of the culture.

Setting [1] is: BaF3, Table 9, read-out: Ba/F3 LMNA-NTRK1-G667C cell proliferation inhibitory activity (IC50).
Setting [2] is: BaF3, 72 h, Table 4, 72 hours, read-out: Ba/F3 LMNA-NTRK1-G667C, IC50.

Where two headings read alike, the source gives them in different places.

On to `CCOc1ccc(C(=O)Nc2ccc(Oc3cc4cnn5c4c(c3-c3cn[nH]c3)CC5)c(F)c2)c(=O)n1-c1ccc(F)cc1` [Example 32, N-(4-((5-(1H-pyrazol-4-yl)-6,7-dihydropyrrolo[3,2,1-hi]-indazol-4-yl)oxy)-3-fluorophenyl)-6-ethoxy-1-(4-fluorophenyl)-2-oxo-12-dihydropyridine-3-carboxamide], for which the IC50 under setting [1] stood at 19 nM.
On to `CC(C)Oc1ccc(C(=O)Nc2ccc(Oc3cc4cnn5c4c(c3-c3cn[nH]c3)CC5)c(F)c2)c(=O)n1-c1ccc(F)cc1` [Example 34, N-(4-((5-(1H-pyrazol-4-yl)-6,7-dihydropyrrolo[3,2,1-hi]-indazol-4-yl)oxy)-3-fluorophenyl)-1-(4-fluorophenyl)-6-isopropoxy-2-oxo-12-dihydropyrndine-3-carboxamide], for which, under setting [1], the IC50 is 23.7 nM.
For `O=C(Nc1cnn2ccc(N3CCC[C@@H]3c3cc(F)ccc3F)nc12)N1CC[C@H](O)C1` [LOXO-101, Larotrectinib, reference compound], the IC50 under setting [2] was 2410 nM.
With `Cc1ccc(C(=O)Nc2ccc(Oc3cc4cnn(C)c4cc3-c3cn[nH]c3)c(F)c2)c(=O)n1-c1ccc(F)cc1` [Merestinib, reference compound], the IC50 was found to be 1.1 nM under setting [2]; 1 nM (BaF3, Table 4-1, separate test, read-out: Ba/F3 LMNA-NTRK1-G667C, IC50); 14.1 nM (BaF3, Table 4-2, separate test, read-out: Ba/F3 LMNA-NTRK1-G667C, IC50).
